From ChEMBL document CHEMBL1156792, “Application of the dipeptidyl peptidase IV (DPPIV/CD26) based prodrug approach to different amine-containing drugs” (J Med Chem, 2010) come the findings set out here.

Peptide text beside a SMILES is read from it. * marks the point of attachment. X2 = OC[C@H]1O[C@@H](n2cnc3c(N*)ncnc32)[C@@H](O)[C@@H]1O

The assay has as its target Dipeptidyl peptidase 4 (Homo sapiens) (UniProt P27487). Kind of assay: Ratio of Vmax/Km for human recombinant CD26 assessed as hydrolysis.

Chain of Dipeptidyl peptidase 4 (Homo sapiens) (P27487 whole entry, looked up): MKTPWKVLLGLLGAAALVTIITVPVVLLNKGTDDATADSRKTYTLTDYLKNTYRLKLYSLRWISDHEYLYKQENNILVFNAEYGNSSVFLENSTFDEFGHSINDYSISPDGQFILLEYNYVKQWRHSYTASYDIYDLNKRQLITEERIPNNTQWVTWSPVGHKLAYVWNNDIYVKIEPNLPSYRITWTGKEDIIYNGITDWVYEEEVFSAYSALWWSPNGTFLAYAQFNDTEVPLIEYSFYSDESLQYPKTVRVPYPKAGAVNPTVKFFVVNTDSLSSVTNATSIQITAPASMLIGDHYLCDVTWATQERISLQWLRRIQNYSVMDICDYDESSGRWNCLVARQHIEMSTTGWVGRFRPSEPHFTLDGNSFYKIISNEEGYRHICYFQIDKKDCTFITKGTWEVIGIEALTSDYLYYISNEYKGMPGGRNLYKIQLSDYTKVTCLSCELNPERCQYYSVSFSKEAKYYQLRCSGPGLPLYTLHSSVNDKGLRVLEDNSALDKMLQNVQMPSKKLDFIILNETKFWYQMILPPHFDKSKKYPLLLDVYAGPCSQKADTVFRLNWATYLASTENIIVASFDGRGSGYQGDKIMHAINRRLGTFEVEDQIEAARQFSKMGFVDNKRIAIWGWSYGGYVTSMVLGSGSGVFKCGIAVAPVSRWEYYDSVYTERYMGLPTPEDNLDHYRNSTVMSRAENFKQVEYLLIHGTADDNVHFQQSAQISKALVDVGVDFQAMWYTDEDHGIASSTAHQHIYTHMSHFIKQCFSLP

Regarding `N[C@@H](CC(=O)O)C(=O)N1CCC[C@H]1C(=O)Nc1ccc2ncccc2c1`, the Vmax/Km is 0.13.

For `CC(C)[C@H](N)C(=O)N1CCC[C@H]1C(=O)Nc1ccc2ncccc2c1`, the Vmax/Km amounted to 1.3.

For the compound `CC(C)[C@H](N)C(=O)N1CCC[C@H]1C(=O)N[C@H](C(=O)N1CCC[C@H]1C(=O)Nc1ncnc2c1ncn2[C@@H]1O[C@H](CO)[C@@H](O)[C@@H]1O)C(C)C` (H-VPVP-X2), the Vmax/Km worked out at 0.18.

Consider `COc1cccc2c1C(=O)c1c(O)c3c(c(O)c1C2=O)C[C@@](O)(C(=O)CO)C[C@@H]3O[C@H]1C[C@H](NC(=O)[C@@H]2CCCN2C(=O)[C@@H](N)C(C)C)[C@H](O)[C@H](C)O1`, for which the Vmax/Km was 0.5.
